# Test results published in patent US11136325B2, “Pyrrolopyrimidine and pyrrolopyridine derivatives” (GALAPAGOS NV, priority 2017, dated 2021).
# Tests used:
# [1] = biological target: hASK1 (Homo sapiens (Human), UniProt Q99683); assay: ASK1 biochemical assay (IMAP technology); conditions: 150 μM ATP, 6 nM hASK1
# Description: IMAP® technology provides a homogeneous assay applicable to a wide variety of kinases, phosphatases, and phosphodiesterases without regard for substrate peptide sequence. The assay is a simple mix-and-read procedure allowing accurate determination of enzyme activity. Based on the specific, high-affinity interaction of phospho groups with trivalent metal-containing nanoparticles (beads), IMAP is a generic, non-antibody-based platform to assess kinase, phosphatase, and phosphodiesterase activity. An enzyme reaction is performed using fluorescently labeled substrate. Addition of the IMAP Binding System stops the enzyme reaction and initiates binding of the beads to phosphorylated substrates. Binding of the substrate to the beads, which correlates to enzyme activity, can be detected using either FP or TR-FRET as a readout.
# Apoptosis Signal-regulating Kinase (ASK1), also known as MAP3K5, is a member of the mitogen-activated protein kinase kinase kinase (MAP3K) family of kinases. It activates the Jnk and p38 pathways through the MAP2Ks MKK4/7 and MKK3/6 (respectively). This ASK1 IMAP assay uses the following IMAP peptide: RP7140-T2 (5TAMRA-GTFRAAIRRLAARRR-OH, SEQ ID NO: 1). The assay has been configured to run at Km for ATP ([…]) so that it will be sensitive to ATP-competitive inhibitors. The final assay conditions are […], 1 mM DTT, 200 nM peptide and 6 nM ASK1 (total protein). The binding reagent is made up in 100% A at a final dilution of 1:200.
# KIT IMAP FP, Cat. No. R8127; Reaction Buffer-Tween (5× conc.), Molecular Devices, Cat. No. R7436; Diluted 1:5 with H2O and containing DTT (1 mM from 1M stock); Progressive Binding Buffer (PBB) A (5× conc.), Molecular Devices, Cat. No. R7282; Progressive Binding Reagent (PB Reagent), Molecular Devices, Cat. No. R7284; Enzyme Solution (containing 2× Ask1 in Reaction buffer); Substrate Solution (containing 2× peptide substrate in Reaction buffer, and 2×150 μM ATP in Reaction buffer); Bead Buffer (Progressive Binding Buffer A diluted 1:5 with H2O); Bead Solution (Bead Buffer containing 1:200 Progressive Binding Reagent (2×))
# 100 nL of test compound in 100% DMSO was added to 384-well plates. For a dose response experiment a 1 in 4 dilution of compound (25 μM top final concentration) was used. 3 μL of hASK1 (6 nM), hASK2 (25 nM) or rASK1 (15 nM) was added to each well except in the control well to which 3 μL buffer was added. 3 μL of substrate solution was added to each well and the plates were incubated for 4 h at room temperature. After which time 6 μL of IMAP™ Bead Solution (Progressive Binding Buffer A+PB Reagent; final dilution 1:100) was added to each well and spun for 1 minute at 1000 rpm. The plates were then incubated for 2 h at room temperature after which time the plates were read on a Perkin Elmer EnVision plate reader.
# Calculation of IC50 data, curves and QC analysis was made by using Excel tools and GraphPadPrism software, v. 5.03. Briefly, individual concentration-effect curves are generated by plotting the logarithm of the tested concentration of tested compounds (X) vs. corresponding percent inhibition values (Y) using least squares (ordinary) fit. Up to ¼ points from high/low controls are allowed to be excluded, but only if values are >Avg.±1*SD. Fitting equation used for IC50 calculation=log(inhibitor) vs. response−Variable slope (four parameters). Calculated results: Calc 1: mP value for FP measurement=1000*(S−G*P)/(S+G*P) where S=<detector 2 or FP-BodipyTAMRA_Ex531-Em579-optimized(1) channel 2>P=<detector 1 or FP-BodipyTAMRA_Ex531-Em579-optimized(1) channel 1>G=G-factor. Gain=100. Top constrain is used only if top values are not correctly calculated.
# Minimum constrained if less than −30% I or greater than 30% I. Maximum constrained if less than 70% I or greater than 130% I. Z′-Factor Target>0.4. Hill Slope range 0.5 to 5.
# [2] = biological target: Full length human ASK1 protein (Homo sapiens (Human), UniProt Q99683); assay: ASK1 biochemical assay (AlphaScreen technology, MKK7 phosphorylation); conditions: 150 μM ATP, 400 nM MKK7, 0.8 nM ASK1
# Full length human ASK1 protein, sequence (Q99683 whole entry): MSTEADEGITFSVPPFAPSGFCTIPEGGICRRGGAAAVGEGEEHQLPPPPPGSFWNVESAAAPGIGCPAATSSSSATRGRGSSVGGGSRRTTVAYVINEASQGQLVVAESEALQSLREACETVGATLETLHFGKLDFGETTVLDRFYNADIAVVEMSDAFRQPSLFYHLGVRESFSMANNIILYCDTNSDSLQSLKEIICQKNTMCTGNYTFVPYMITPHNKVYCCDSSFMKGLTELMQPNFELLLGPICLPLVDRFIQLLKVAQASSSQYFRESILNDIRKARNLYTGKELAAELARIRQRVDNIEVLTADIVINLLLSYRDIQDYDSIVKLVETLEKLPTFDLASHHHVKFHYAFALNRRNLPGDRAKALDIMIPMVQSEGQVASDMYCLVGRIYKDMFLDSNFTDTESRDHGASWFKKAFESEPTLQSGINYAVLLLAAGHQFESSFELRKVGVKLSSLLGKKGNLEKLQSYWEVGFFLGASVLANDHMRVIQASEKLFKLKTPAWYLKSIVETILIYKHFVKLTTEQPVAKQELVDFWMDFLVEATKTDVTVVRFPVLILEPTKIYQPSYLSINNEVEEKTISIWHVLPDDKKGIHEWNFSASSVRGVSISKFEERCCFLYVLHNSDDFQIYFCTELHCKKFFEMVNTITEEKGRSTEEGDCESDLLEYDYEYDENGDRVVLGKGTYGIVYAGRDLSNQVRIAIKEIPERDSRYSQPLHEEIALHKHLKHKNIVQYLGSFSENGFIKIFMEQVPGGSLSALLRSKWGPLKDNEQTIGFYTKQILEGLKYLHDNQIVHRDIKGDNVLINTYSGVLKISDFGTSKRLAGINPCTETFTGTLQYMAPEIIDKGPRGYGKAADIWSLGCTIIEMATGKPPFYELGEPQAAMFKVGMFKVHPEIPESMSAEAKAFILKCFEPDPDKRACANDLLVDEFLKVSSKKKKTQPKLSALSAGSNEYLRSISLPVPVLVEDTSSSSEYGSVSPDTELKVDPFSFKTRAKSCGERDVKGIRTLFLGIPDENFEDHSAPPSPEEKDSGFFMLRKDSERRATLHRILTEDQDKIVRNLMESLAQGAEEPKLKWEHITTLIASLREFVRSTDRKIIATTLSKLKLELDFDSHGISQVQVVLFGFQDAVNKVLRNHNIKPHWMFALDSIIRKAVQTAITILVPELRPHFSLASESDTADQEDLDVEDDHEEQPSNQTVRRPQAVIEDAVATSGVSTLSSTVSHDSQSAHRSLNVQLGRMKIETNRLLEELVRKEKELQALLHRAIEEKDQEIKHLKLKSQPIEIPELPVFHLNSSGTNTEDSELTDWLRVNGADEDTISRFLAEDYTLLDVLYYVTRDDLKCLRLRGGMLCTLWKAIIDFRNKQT
# Description: ASK1 and ASK2 biochemical activities were also quantified using AlphaScreen technology which measures the degree of phosphorylation of a protein substrate (MKK7). AlphaScreen technology is based on the binding of a substrate to two types of beads, acceptor and donor. Binding to one bead is through the tag of the substrate protein. Binding of the second bead is through phosphospecific binding of antibody to the phosphosite of the substrate. This forms a sandwich, with the acceptor and donor beads in close proximity. When the donor beads are excited by light in the 680 nm range, a singlet oxygen is released and causes emission of light from the acceptor in the 620 nm range which can be detected using a suitable plate reader.
# The phosphorylation site on MKK7 (Ser271/Thr275) is then recognised by a phosphospecific antibody. The phosphospecific antibody is bound to the AlphaScreen acceptor beads through a Protein-A interaction. Phosphorylation of MKK7 by ASK1 or ASK2 subsequently facilitates the bringing together of the donor and acceptor beads into close proximity whereupon the transfer of the singlet oxygen leads to the generation of the AlphaScreen signal.
# The assay was configured to run using the following conditions (final concentrations): 150 μM ATP; 400 nM MKK7; 0.8 nM ASK1 and 2 nM ASK2.
# 100 nL of test compound (starting concentration 6 μM, 11 concentrations with 3 fold serial dilutions) in 100% DMSO was added to low volume 384 well plates. 2.5 μl of ASK1 or ASK2 was added to each well except in the control wells to which 2.5 μl buffer was added. 2.5 μl of MKK7 solution was added to all wells. The plate was incubated for 60 minutes at room temperature. Protein-A acceptor beads and phospho-specific antibody were incubated for 30 minutes and then 2.5 μl of Protein-A acceptor beads/phospho-specific antibody mix (2.5 μg/ml acceptor beads final concentration and 1/800 antibody final dilution) was added to each well. The plate was incubated for 30 minutes at room temperature and then 2.5 μl of GSH donor beads (10 μg/ml […] final concentration) was added to each well. The plate was incubated for a further 60 minutes at room temperature, following which the plate was read on a Perkin Elmer Enspire plate reader.
# Calculation of IC50 data, curves and QC analysis were made by using Excel tools and GraphPadPrism software, v. 5.03. Briefly, individual concentration-effect curves were generated by plotting the logarithm of the tested concentration of tested compounds (X) vs. corresponding percent inhibition values (Y) using least squares (ordinary) fit. Fitting equation used for IC50 calculation=log(inhibitor) vs. response−Variable slope (four parameters).
# hASK1, sequence (Q99683 whole entry): as above
Inhibition (pIC50) ASK1 [1],Inhibition (pIC50) ASK1 [2],Compound
8.17,8.9/—,"Cc1cnc(N)cc1C(=O)NC1CCN(c2ncnc3[nH]cc(C)c23)CC1 [Compound 2, 2-amino-5-methyl-N-[1-(5-methyl-7H-pyrrolo[2,3-d]pyrimidin-4-yl)-4-piperidyl]pyridine-4-carboxamide]"
8.24/—,8.24/—^,"Nc1cc(C(=O)NC2CCN(c3ccnc4[nH]cc(Cl)c34)CC2)c(F)cn1 [Compound 7, 2-amino-N-[1-(3-chloro-1H-pyrrolo[2,3-b]pyridin-4-yl)-4-piperidyl]-5-fluoro-pyridine-4-carboxamide]"
8.46,9.4,"Nc1cc(C(=O)NC2CCN(c3ncnc4[nH]cc(Cl)c34)CC2)ccn1 [Compound 4, 2-amino-N-[1-(5-chloro-7H-pyrrolo[2,3-d]pyrimidin-4-yl)-4-piperidyl]pyridine-4-carboxamide]"
8.98/—,8.98/—^,"Cc1c[nH]c2ncc(C#N)c(N3CCC(NC(=O)c4cc(N)ncc4F)CC3)c12 [Compound 6, 2-amino-N-[1-(5-cyano-3-methyl-1H-pyrrolo[2,3-b]pyridin-4-yl)-4-piperidyl]-5-fluoro-pyridine-4-carboxamide]"
8.43/—,8.8/—,"Nc1cc(C(=O)NC2CCN(c3ncnc4[nH]cc(Cl)c34)CC2)c(F)cn1 [Compound 5, 2-amino-N-[1-(5-chloro-7H-pyrrolo[2,3-d]pyrimidin-4-yl)-4-piperidyl]-5-fluoro-pyridine-4-carboxamide]"
8.05/—,8.7,"Cc1c[nH]c2ncnc(N3CCC(NC(=O)c4cc(N)ncc4Cl)CC3)c12 [Compound 3, 2-amino-5-chloro-N-[1-(5-methyl-7H-pyrrolo[2,3-d]pyrimidin-4-yl)-4-piperidyl]-pyridine-4-carboxamide]"
8.24,8.72,"Cc1c[nH]c2ncnc(N3CCC(NC(=O)c4cc(N)ncc4F)CC3)c12 [Compound 1, 2-amino-5-fluoro-N-[1-(5-methyl-7H-pyrrolo[2,3-d]pyrimidin-4-yl)-4-piperidyl]pyridine-4-carboxamide]"
